Assay results as given in the NIST ThermoML archive (doi:10.1021/je101012n).

Assay: mn = molality of the nth substance listed, in mol/kg
Details: 101 kPa, Liquid, Alternating current cell with electrodes

[F-].[Na+] [sodium fluoride] + O
electrical conductivity [S/m]
Details	278.15 K	283.15 K	298.15 K	308.15 K	318.15 K	343.15 K	363.15 K
m1 = 8.8e-05	0.0005802	0.0006955	0.0009523	0.00122	0.001433	0.002014	0.00252
m1 = 0.00092	0.006016	0.006909	0.009683	0.01152	0.01398	0.02009	0.02474
m1 = 0.00878	0.05214	0.05994	0.08551	0.1038	0.1234	0.1798	0.227
m1 = 0.0906	0.4638	0.5338	0.7669	0.9341	1.112	1.621	2.042
m1 = 0.4176	1.917	2.201	3.151	3.824	4.547	6.57	8.137
m1 = 0.8404	3.432	3.915	5.579	6.791	7.478	11.37	14.54

[Cl][Fe][Cl] [ferrous chloride] + O
electrical conductivity [S/m]
Details	278.1 K	283.1 K	298.15 K	308.15 K	318.15 K	343.15 K	363.15 K
m1 = 9e-05	0.3365	0.3724	0.4835	0.5486	0.6142	0.7702	0.8954
m1 = 0.000726	0.3437	0.3802	0.494	0.5646	0.635	0.8025	0.9282
m1 = 0.00908	0.4397	0.4997	0.6568	0.7661	0.8715	1.148	1.354
m1 = 0.1169	1.6	1.807	2.494	3.003	3.516	4.889	5.966

[F-].[K+] [potassium fluoride] + O
electrical conductivity [S/m]
Details	278.15 K	283.15 K	298.15 K	308.15 K	318.15 K	343.15 K	363.15 K
m1 = 0.000325	0.002576	0.002933	0.004125	0.005036	0.005965	0.008448	0.01046
m1 = 0.00109	0.008262	0.009509	0.01357	0.01642	0.01929	0.02734	0.03426
m1 = 0.035	0.2417	0.2829	0.3939	0.4778	0.5576	0.7954	0.9964
m1 = 0.11	0.7375	0.8455	1.195	1.445	1.692	2.409	3.004
m1 = 0.52	3.023	3.435	4.804	5.771	6.801	9.683	11.86
m1 = 0.99	5.272	6.034	8.275	9.907	11.75	16.85	20.13

Cl [hydrogen chloride] + O
electrical conductivity [S/m]
Details	278.15 K	283.15 K	298.15 K	308.15 K	318.15 K	343.15 K	363.15 K
m1 = 0.00011	0.003313	0.003683	0.004665	0.00531	0.005973	0.007487	0.008461
m1 = 0.000958	0.028	0.03088	0.03978	0.04565	0.05121	0.06414	0.07325
m1 = 0.00937	0.2714	0.3001	0.3869	0.4408	0.4932	0.6227	0.7132
m1 = 0.09398	2.604	2.872	3.684	4.19	4.673	5.872	6.722
m1 = 0.4603	11.98	13.14	16.69	18.97	21.09	26.23	29.87
m1 = 0.85	20.2	22.06	27.9	31.53	34.95	43.45	48.24

O=S(=O)([O-])[O-].[Fe+2] [iron(II) sulfate] + O
electrical conductivity [S/m]
Details	278.1 K	283.1 K	298.15 K	308.15 K	318.15 K	343.15 K	363.15 K
m1 = 0.00112	0.06212	0.06791	0.08697	0.09771	0.1075	0.1235	0.1274
m1 = 0.00212	0.06435	0.07287	0.09366	0.1063	0.1165	0.1409	0.1543
m1 = 0.01287	0.1183	0.1326	0.1784	0.2092	0.2419	0.3214	0.3988
m1 = 0.1121	0.2469	0.269	0.3516	0.3913	0.4714	–	–
m1 = 0.2576	1.238	1.415	1.98	2.303	2.692	3.631	4.11

[Br-].[K+] [potassium bromide] + O
electrical conductivity [S/m]
Details	278.15 K	283.15 K	298.15 K	308.15 K	318.15 K	343.15 K	363.15 K
m1 = 9.9e-05	0.0009344	0.001066	0.001469	0.00175	0.002072	0.002896	0.003522
m1 = 0.000975	0.009114	0.01037	0.01441	0.01716	0.02007	0.02802	0.0343
m1 = 0.00987	0.08994	0.1022	0.1417	0.1689	0.1974	0.2761	0.3376
m1 = 0.09755	0.8252	0.9355	1.29	1.535	1.787	2.491	2.952
m1 = 1.21	8.409	9.363	12.45	14.54	16.72	22.46	26.28

O=[N+]([O-])[O-].O=[N+]([O-])[O-].[Mg+2] [magnesium nitrate] + O
electrical conductivity [S/m]
Details	278.1 K	283.1 K	298.15 K	308.15 K	318.15 K	343.15 K	363.15 K
m1 = 9.8e-05	0.007334	0.008166	0.01072	0.01244	0.01407	0.01831	0.02164
m1 = 0.000976	0.01971	0.02238	0.03083	0.03667	0.04272	0.0591	0.07277
m1 = 0.00937	0.1291	0.1472	0.2073	0.2488	0.2927	0.4146	0.5165
m1 = 0.09844	1.079	1.228	1.724	2.078	2.442	3.471	4.261
m1 = 0.3271	3.129	3.538	4.926	5.922	6.968	9.861	11.62

O=C([O-])[O-].[K+].[K+] [potassium carbonate] + O
electrical conductivity [S/m]
Details	278.15 K	283.15 K	298.15 K	308.15 K	318.15 K	343.15 K	363.15 K
m1 = 0.00132	0.02129	0.02471	0.03642	0.0439	0.05331	0.07921	0.09755
m1 = 0.01048	0.1568	0.1809	0.2575	0.3146	0.3758	0.5522	0.6987
m1 = 0.1319	1.589	1.815	2.542	3.054	3.59	5.098	6.345
m1 = 0.3525	3.8	4.305	5.942	7.115	8.319	11.6	14.31

[Na+].[OH-] [sodium hydroxide] + O
electrical conductivity [S/m]
Details	278.15 K	283.15 K	298.15 K	308.15 K	318.15 K	343.15 K	363.15 K
m1 = 0.001	0.01671	0.01919	0.02459	0.02833	0.03327	0.04401	0.05213
m1 = 0.01	0.1596	0.1793	0.2414	0.2784	0.3201	0.4294	0.5115
m1 = 0.1	1.498	1.677	2.251	2.635	3.026	4.062	4.861
m1 = 0.5	6.639	7.417	9.875	11.59	13.25	17.72	20.63
m1 = 1	12.13	13.5	18.01	21.19	24.38	32.74	36.66

O=[N+]([O-])[O-].O=[N+]([O-])[O-].O=[N+]([O-])[O-].[Al+3] [aluminum trinitrate] + O
electrical conductivity [S/m]
Details	278.1 K	283.1 K	298.15 K	308.15 K	318.15 K	343.15 K	363.15 K
m1 = 8.8e-05	–	–	–	–	–	0.09049	0.1042
m1 = 0.000883	0.05671	0.06384	0.08484	0.09898	0.1135	0.1533	0.1872
m1 = 0.00871	0.2168	0.2457	0.3424	0.411	0.4827	0.6932	0.8941
m1 = 0.0881	1.551	1.706	2.378	2.873	3.387	4.867	5.923
m1 = 0.158	2.511	2.826	3.913	4.788	5.595	7.689	9.698

O=S(=O)([O-])[O-].[Cs+].[Cs+] [cesium sulfate] + O
electrical conductivity [S/m]
Details	278.15 K	283.15 K	298.15 K	308.15 K	318.15 K	343.15 K	363.15 K
m1 = 0.000101	0.001962	0.002237	0.003069	0.003625	0.004233	0.006348	0.0078
m1 = 0.00105	0.01932	0.02195	0.0306	0.03666	0.04304	0.06181	0.07641
m1 = 0.01021	0.1676	0.1906	0.2654	0.3173	0.3716	0.5216	0.6438
m1 = 0.1047	1.358	1.539	2.124	2.529	2.958	4.094	5.022
m1 = 0.1836	2.24	2.528	3.468	4.119	4.792	6.59	8
m1 = 0.3588	4.083	4.58	6.204	7.32	8.463	11.58	13.73

O=C([O-])[O-].[Na+].[Na+] [sodium carbonate] + O
electrical conductivity [S/m]
Details	278.15 K	283.15 K	298.15 K	308.15 K	318.15 K	343.15 K	363.15 K
m1 = 0.000912	0.01348	0.01603	0.02439	0.02888	0.03495	0.05196	0.06513
m1 = 0.01031	0.1285	0.1491	0.2182	0.2684	0.3237	0.4867	0.6187
m1 = 0.09334	0.886	1.024	1.486	1.822	2.182	3.222	4.117
m1 = 0.3041	2.324	2.685	3.893	4.781	5.713	8.362	10.64
